Test results reported in US11970474B2, “Substituted benzodiazoles and use thereof in therapy” (THOMAS HELLEDAYS STIFTELSE FÖR MEDICINSK FORSKNING, priority 2018, dated 2024).
pIC50: −log10 of the molar value.

What follows are molecules tested against OGG1 (Homo sapiens (Human), UniProt O15527) (assay: In vitro OGG1 activity assay). Conditions: 800 pM OGG1 enzyme, 2 nM human APEX1, 10 nM 8-oxoA:C substrate.
Assay type: biochemical
Summary of the method: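 Read-out is fluorescein fluorescence, with compounds in DMSO added first, then enzyme and substrate. OGG1 excises its substrate base from a quenched fluorophore-labelled duplex, and surplus APEX1 cuts the resulting apurinic site. The duplex then melts and fluorescence rises in proportion to glycosylase activity.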

Sequence of OGG1 (O15527 whole entry): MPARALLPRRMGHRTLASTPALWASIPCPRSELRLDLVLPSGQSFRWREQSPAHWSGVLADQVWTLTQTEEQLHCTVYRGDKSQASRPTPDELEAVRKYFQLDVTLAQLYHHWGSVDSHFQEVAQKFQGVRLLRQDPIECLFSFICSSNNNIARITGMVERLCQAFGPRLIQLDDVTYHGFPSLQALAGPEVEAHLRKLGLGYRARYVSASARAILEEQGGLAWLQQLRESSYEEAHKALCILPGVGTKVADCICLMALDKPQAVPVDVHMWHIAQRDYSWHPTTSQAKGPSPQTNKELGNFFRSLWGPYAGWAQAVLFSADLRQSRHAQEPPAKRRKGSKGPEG

| Structure (SMILES) | pIC50 |
| --- | --- |
| COc1cc(NC(=O)[C@H]2CC[C@@H](n3c(=O)[nH]c4c(C(=O)N(C)C)cccc43)CC2)ccc1C [Example 260, N,N-Dimethyl-2-oxo-1-[cis-4-[(3-methoxy-4-methylphenyl)carbamoyl]cyclohexyl]-2,3-dihydro-1H-1,3-benzodiazole-4-carboxamide] | 6.46 |
| COc1cc(NC(=O)[C@H]2CC[C@@H](n3c(=O)[nH]c4c(C(=O)N5CCNCC5)cccc43)CC2)ccc1C [Example 261, Cis-N-(3-methoxy-4-methylphenyl)-4-[2-oxo-4-(piperazine-1-carbonyl)-2,3-dihydro-1H-1,3-benzodiazol-1-yl]cyclohexane-1-carboxamide] | 7.17 |
| COc1cc(NC(=O)[C@H]2CC[C@@H](n3c(=O)[nH]c4c(C(=O)NCCCN)cccc43)CC2)ccc1C [Example 265, N-(3-Aminopropyl)-2-oxo-1-[cis-4-[(3-methoxy-4-methylphenyl)carbamoyl]cyclohexyl]-2,3-dihydro-1H-1,3-benzodiazole-4-carboxamide] | 9.55 |
| CNCCN(C)C(=O)c1cccc2c1[nH]c(=O)n2[C@H]1CC[C@@H](C(=O)Nc2ccc(C)c(OC)c2)CC1 [Example 266, N-Methyl-N-[2-(methylamino)ethyl]-2-oxo-1-[cis-4-[(3-methoxy-4-methylphenyl)carbamoyl]cyclohexyl]-2,3-dihydro-1H-1,3-benzodiazole-4-carboxamide] | 8.09 |
| COc1cc(NC(=O)[C@H]2CC[C@@H](n3c(=O)[nH]c4c(C(=O)N5CCN(CCN(C)C)CC5)cccc43)CC2)ccc1C [Example 275, Cis-4-(4-{4-[2-(dimethylamino)ethyl]piperazine-1-carbonyl}-2-oxo-2,3-dihydro-1H-1,3-benzodiazol-1-yl)-N-(3-methoxy-4-methylphenyl)cyclohexane-1-carboxamide] | 6.77 |
| COc1cc(NC(=O)[C@H]2CC[C@@H](n3c(=O)[nH]c4c(C(=O)N5CCCC5C(N)=O)cccc43)CC2)ccc1C (stereo partly drawn) [Example 278, 1-{2-Oxo-1-[cis-4-[(3-methoxy-4-methylphenyl)carbamoyl]cyclohexyl]-2,3-dihydro-1H-1,3-benzodiazole-4-carbonyl}pyrrolidine-2-carboxamide] | 6.65 |
| COc1cc(NC(=O)[C@H]2CC[C@@H](n3c(=O)[nH]c4c(Nc5ncccn5)cccc43)CC2)ccc1C [Example 279, Cis-N-(3-methoxy-4-methylphenyl)-4-{2-oxo-4-[(pyrimidin-2-yl)amino]-2,3-dihydro-1H-1,3-benzodiazol-1-yl}cyclohexane-1-carboxamide] | 7.13 |
| COc1cc(NC(=O)[C@H]2CC[C@@H](n3c(=O)[nH]c4c(NC(=O)CCN)cccc43)CC2)ccc1C [Example 284, Cis-4-[4-(3-aminopropanamido)-2-oxo-2,3-dihydro-1H-1,3-benzodiazol-1-yl]-N-(3-methoxy-4-methylphenyl)cyclohexane-1-carboxamide] | 8.76 |
| COc1cc(NC(=O)[C@H]2CC[C@@H](n3c(=O)[nH]c4c(NC(=O)[C@@H]5CCN5)cccc43)CC2)ccc1C [Example 287, (2S)—N-{2-Oxo-1-[cis-4-[(3-methoxy-4-methylphenyl)carbamoyl]cyclohexyl]-2,3-dihydro-1H-1,3-benzodiazol-4-yl}azetidine-2-carboxamide] | 7.57 |
| COc1cc(NC(=O)[C@H]2CC[C@@H](n3c(=O)[nH]c4c(NC(C)=O)cccc43)CC2)ccc1C [Example 288, Cis-4-(4-acetamido-2-oxo-2,3-dihydro-1H-1,3-benzodiazol-1-yl)-N-(3-methoxy-4-methylphenyl)cyclohexane-1-carboxamide] | 7.64 |
| CC(=O)Nc1cccc2c1[nH]c(=O)n2[C@H]1CC[C@@H](C(=O)Nc2ccc3cc[nH]c3c2)CC1 [Example 290, Cis-4-(4-acetamido-2-oxo-2,3-dihydro-1H-1,3-benzodiazol-1-yl)-N-(1H-indol-6-yl)cyclohexane-1-carboxamide] | 6.62 |
| COc1cc(NC(=O)[C@H]2CC[C@@H](n3c(=O)[nH]c4c(C(N)=O)cccc43)CC2)ccc1C [Example 291, 2-Oxo-1-[cis-4-[(3-methoxy-4-methylphenyl)carbamoyl]cyclohexyl]-2,3-dihydro-1H-1,3-benzodiazole-4-carboxamide] | 8.02 |
| COc1cc(NC(=O)[C@H]2CC[C@@H](n3c(=O)[nH]c4c(C(=O)NCC5COCCN5)cccc43)CC2)ccc1C (stereo partly drawn) [Example 292, N-[(Morpholin-3-yl)methyl]-2-oxo-1-[cis-4-[(3-methoxy-4-methylphenyl)carbamoyl]cyclohexyl]-2,3-dihydro-1H-1,3-benzodiazole-4-carboxamide] | 9.43 |
| COc1cc(NC(=O)[C@H]2CC[C@@H](n3c(=O)[nH]c4c(C(=O)NC5CNC5)cccc43)CC2)ccc1C [Example 293, N-(Azetidin-3-yl)-2-oxo-1-[cis-4-[(3-methoxy-4-methylphenyl)carbamoyl]cyclohexyl]-2,3-dihydro-1H-1,3-benzodiazole-4-carboxamide] | 8.85 |
| COc1cc(NC(=O)[C@H]2CC[C@@H](n3c(=O)[nH]c4c(C(=O)NC5CCNC5)cccc43)CC2)ccc1C (stereo partly drawn) [Example 294, 2-Oxo-N-(pyrrolidin-3-yl)-1-[cis-4-[(3-methoxy-4-methylphenyl)carbamoyl]cyclohexyl]-2,3-dihydro-1H-1,3-benzodiazole-4-carboxamide] | 8.92 |
| COc1cc(NC(=O)[C@H]2CC[C@@H](n3c(=O)[nH]c4c(N5CCC(N)CC5)cccc43)CC2)ccc1C [Example 303, Cis-4-[4-(4-aminopiperidin-1-yl)-2-oxo-2,3-dihydro-1H-1,3-benzodiazol-1-yl]-N-(3-methoxy-4-methylphenyl)cyclohexane-1-carboxamide] | 7.97 |
| COc1cc(NC(=O)[C@H]2CC[C@@H](n3c(=O)[nH]c4c(OCCC(C)C)cccc43)CC2)ccc1C [Example 325, Cis-N-(3-methoxy-4-methylphenyl)-4-[4-(3-methylbutoxy)-2-oxo-2,3-dihydro-1H-1,3-benzodiazol-1-yl]cyclohexane-1-carboxamide] | 6.50 |

Continued, values first:

| pIC50 | Structure (SMILES) |
| --- | --- |
| 7.25 | COc1cc(NC(=O)[C@H]2CC[C@@H](n3c(=O)[nH]c4c(N5Cc6cn[nH]c6C5)cccc43)CC2)ccc1C [Example 314, Cis-N-(3-methoxy-4-methylphenyl)-4-(2-oxo-4-{1H,4H,5H,6H-pyrrolo[3,4-c]pyrazol-5-yl}-2,3-dihydro-1H-1,3-benzodiazol-1-yl)cyclohexane-1-carboxamide] |
| 6.12 | CC(=O)Nc1cccc2c1[nH]c(=O)n2[C@H]1CC[C@@H](C(=O)Nc2ccc3[nH]ncc3c2)CC1 [Example 315, Cis-4-(4-acetamido-2-oxo-2,3-dihydro-1H-1,3-benzodiazol-1-yl)-N-(1H-indazol-5-yl)cyclohexane-1-carboxamide] |
| 7.42 | COC(=O)NC1CCN(c2cccc3c2[nH]c(=O)n3[C@H]2CC[C@@H](C(=O)Nc3ccc(C)c(OC)c3)CC2)C1 (stereo partly drawn) [Example 316, Methyl N-(1-{2-oxo-1-[cis-4-[(3-methoxy-4-methylphenyl)carbamoyl]cyclohexyl]-2,3-dihydro-1H-1,3-benzodiazol-4-yl}pyrrolidin-3-yl)carbamate] |
| 7.41 | COc1cc(NC(=O)[C@H]2CC[C@@H](n3c(=O)[nH]c4c(N5CCC(NC(=O)C(C)(C)O)C5)cccc43)CC2)ccc1C (stereo partly drawn) [Example 317, Cis-4-{4-[3-(2-hydroxy-2-methylpropanamido)pyrrolidin-1-yl]-2-oxo-2,3-dihydro-1H-1,3-benzodiazol-1-yl}-N-(3-methoxy-4-methylphenyl)cyclohexane-1-carboxamide] |
| 7.10 | COc1cc(NC(=O)[C@H]2CC[C@@H](n3c(=O)[nH]c4c(NC(=O)c5nccn5C)cccc43)CC2)ccc1C [Example 318, 1-Methyl-N-{2-oxo-1-[cis-4-[(3-methoxy-4-methylphenyl)carbamoyl]cyclohexyl]-2,3-dihydro-1H-1,3-benzodiazol-4-yl}-1H-imidazole-2-carboxamide] |
| 7.69 | COc1cc(NC(=O)[C@H]2CC[C@@H](n3c(=O)[nH]c4c(NC(=O)c5cn(C)cn5)cccc43)CC2)ccc1C [Example 319, 1-Methyl-N-{2-oxo-1-[cis-4-[(3-methoxy-4-methylphenyl)carbamoyl]cyclohexyl]-2,3-dihydro-1H-1,3-benzodiazol-4-yl}-1H-imidazole-4-carboxamide] |
| 7.66 | COc1cc(NC(=O)[C@H]2CC[C@@H](n3c(=O)[nH]c4c(NC(=O)c5coc(N)n5)cccc43)CC2)ccc1C [Example 320, 2-Amino-N-{2-oxo-1-[cis-4-[(3-methoxy-4-methylphenyl)carbamoyl]cyclohexyl]-2,3-dihydro-1H-1,3-benzodiazol-4-yl}-1,3-oxazole-4-carboxamide] |
| 8.24 | COc1cc(NC(=O)[C@H]2CC[C@@H](n3c(=O)[nH]c4c(NC(=O)c5ccnn5C)cccc43)CC2)ccc1C [Example 321, 1-Methyl-N-{2-oxo-1-[cis-4-[(3-methoxy-4-methylphenyl)carbamoyl]cyclohexyl]-2,3-dihydro-1H-1,3-benzodiazol-4-yl}-1H-pyrazole-5-carboxamide] |
| 5.58 | O=c1[nH]c2ccccc2n1[C@H]1CC[C@@H](C(=O)Nc2ccc(F)cc2)CC1 [Example 322, Cis-N-(4-fluorophenyl)-4-(2-oxo-2,3-dihydro-1H-benzo[d]imidazol-1-yl)cyclohexanecarboxamide] |
| 6.65 | COc1cc(NC(=O)[C@H]2CC[C@@H](n3c(=O)[nH]c4c(NCC(F)(F)F)cccc43)CC2)ccc1C [Example 323, Cis-N-(3-methoxy-4-methylphenyl)-4-{2-oxo-4-[(2,2,2-trifluoroethyl)amino]-2,3-dihydro-1H-1,3-benzodiazol-1-yl}cyclohexane-1-carboxamide] |
| 7.01 | COc1cc(NC(=O)[C@H]2CC[C@@H](n3c(=O)[nH]c4c(NCC(F)F)cccc43)CC2)ccc1C [Example 324, Cis-4-{4-[(2,2-difluoroethyl)amino]-2-oxo-2,3-dihydro-1H-1,3-benzodiazol-1-yl}-N-(3-methoxy-4-methylphenyl)cyclohexane-1-carboxamide] |
